The source of these data is publication PMC4698308, “A new amino acid substitution (Ala-205-Phe) in acetolactate synthase (ALS) confers broad spectrum resistance to ALS-inhibiting herbicides” (Planta, 2015).

pIC50: −log10 of the molar value.

Test [1] addresses T1, recombinant Arabidopsis thaliana ALS wild-type enzyme (WT—sensitive) (Arabidopsis thaliana, UniProt P17597).
T1 construct: Protein constructs contained an 85 amino acid N-terminal deletion (chloroplast transit peptide); Hexa-histidine tag (N); made in house
In words: biochemical. Here is the method:
(§1) Effects of SNPs identified in sequencing analysis on ALS activity were studied using A. thaliana. The ALS gene from A. thaliana and derivatives thereof were de novo synthesized and subcloned into pET-24d(+) (Life Technologies. Grand Island, NY, USA) using NcoI and XhoI restriction sites. Protein constructs contained an 85 amino acid N-terminal deletion (chloroplast transit peptide) and the addition of an N-terminal Hexa-histidine tag to facilitate purification.
(§2) Lysis was performed by at least two passes through a fluidizer, followed by centrifuging at 80000×g for 30 min at 4 °C. […] Fractions containing ALS protein were pooled and stored at −20 °C.
(§3) Inhibitors, purchased from Sigma as Pestanal standards (Sigma-Aldrich, Deisenhofen, Germany), were dissolved in DMSO and added to the reaction mixture. Inhibitors evaluated included imidazolinone, sulfonylurea, triazolopyrimidines, sulfonylamino-carbonyl- triazolinones, and pyrimidinyl (thio) benzoate herbicides. The reaction mixture was incubated at 30 °C for 60 min and stopped with 70 µl of H2SO4 (3 M). The reaction was then heated to 56 °C for 15 min to convert acetolactate into acetoin. […] For each inhibitor, resistance factors were calculated by dividing IC50 values for mutant and sensitive ALS.

The subject of test [2] is recombinant Arabidopsis thaliana ALS variant A205V. Format: biochemical. The conditions noted are these: IC50 mutant divided by IC50 sensitive ALS; max inhibitor concentration 1.00 × 10^−04 M. As for the experimental part:
as §1, §2, §3

Test [3] has as its system recombinant Arabidopsis thaliana ALS variant A205F. Format: biochemical. Particulars: IC50 mutant divided by IC50 sensitive ALS; max inhibitor concentration 1.00 × 10^−04 M. As for the experimental part: as §1, §2, §3
The test system of test [4] is recombinant Arabidopsis thaliana ALS variant W574L. Format: biochemical. The conditions noted are these: IC50 mutant divided by IC50 sensitive ALS; max inhibitor concentration 1.00 × 10^−04 M. As for the experimental part:
as §1, §2, §3

For test [5], the system named is annual bluegrass (Poa annua L.). Put plainly: Whole plant non-target site resistance experiment with P450 inhibitors malathion or PBO (control 21 days after treatment). Format: in vivo. Particulars: for Annual bluegrass control S: susceptible (S). As for the experimental part: Additional experiments were conducted during March–April 2015 to determine if non-target site based mechanisms conferred resistance to ALS inhibitors in our annual bluegrass population, POAAN-R3. Plants (RP6, RP7, and S) were cultured in plastic conical containers as previously described and allowed to acclimate to the glasshouse for 18 days prior to initiating two experiments.
In the first experiment, resistant (RP6, RP7) and susceptible (S) plants were treated with foramsulfuron at 29 g ha^−1, trifloxysulfuron (Monument. Syngenta Professional Products. Greensboro, NC, USA) at 27.8 g ha^−1, imazaquin (Image. BASF Corporation. Research Triangle Park, NC) at 27.5 g ha^−1, or bispyribac-sodium (Velocity. Valent USA Corporation. Walnut Creek, CA, USA) at 70 g ha^−1. All herbicides were applied alone or in combination with either malathion (Spectrum Group. St. Louis, MO, USA) at 1000 g ha^−1 or piperonyl butoxide (Sigma Aldrich. St. Louis, MO, USA) at 2100 g ha^−1. Malathion and piperonyl butoxide (PBO) inhibit cytochrome P450 monooxygenases involved in metabolism of ALS inhibiting herbicides and are commonly used at the application rates tested herein to evaluate non-target site based resistance mechanisms in weeds (Burnet et al. [1994]; Christopher et al. [1992]; Yu and Powles [2014b]; Rao et al. [1995]). All herbicides were mixed in water carrier and included non-ionic surfactant at 0.25 % v/v. Malathion and PBO were mixed with methanol and de-ionized water (50:50) and applied 60 min prior to herbicide application using a previously described enclosed spray chamber on 13 February 2015.
Annual bluegrass control was visually assessed on a 0 (i.e., no control) to 100 % (i.e., complete kill) scale relative to the non-treated 21 days after treatment. After all control data had been collected, aboveground biomass was harvested from each plastic conical container at the soil line using scissors, dried at 100 °C, and weighed. Treatments were arranged as a 3 × 5 × 3 factorial with three plant selections (RP6, RP7, S), five herbicides (foramsulfuron, trifloxysulfuron, imazaquin, bispyribac-sodium, non-treated) and three P450 inhibitor treatments (malathion, PBO, non-treated) in a completely randomized design with four replications and repeated in separate glasshouses during February 2015.

T1 sequence (P17597 86-670): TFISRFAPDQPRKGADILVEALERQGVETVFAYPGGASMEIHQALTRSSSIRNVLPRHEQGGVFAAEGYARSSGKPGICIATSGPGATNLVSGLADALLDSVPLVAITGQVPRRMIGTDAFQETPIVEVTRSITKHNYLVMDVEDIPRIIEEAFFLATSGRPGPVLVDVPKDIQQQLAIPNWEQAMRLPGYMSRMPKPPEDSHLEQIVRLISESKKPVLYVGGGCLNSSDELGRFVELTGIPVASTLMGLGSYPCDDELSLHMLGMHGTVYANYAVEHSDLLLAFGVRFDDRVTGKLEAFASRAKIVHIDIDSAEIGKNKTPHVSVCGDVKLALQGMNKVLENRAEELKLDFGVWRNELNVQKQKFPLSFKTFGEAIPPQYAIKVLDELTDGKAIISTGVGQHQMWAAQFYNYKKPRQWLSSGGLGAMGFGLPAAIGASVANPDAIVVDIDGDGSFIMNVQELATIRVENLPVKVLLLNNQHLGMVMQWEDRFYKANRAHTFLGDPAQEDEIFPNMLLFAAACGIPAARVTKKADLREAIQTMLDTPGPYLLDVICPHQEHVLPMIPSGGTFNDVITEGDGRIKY

As to `CC(C)C1(C)N=C(c2nc3ccccc3cc2C(=O)O)NC1=O` (stereo not shown) [Imazaquin], the pIC50 in test [1] was 5.81. In addition, the “Resistance factor A205V” value in test [2] was 36. Also, the “Resistance factor A205F” value in test [3] is 19. For the same compound, in test [4], the “Resistance factor W574L” value turned out to be 65. In addition, the “Annual bluegrass control RP6” value in test [5] (RP6, herbicide alone, foramsulfuron 29, trifloxysulfuron 27.8, imazaquin 27.5, bispyribac-sodium 70 g ha^−1) turned out to be 36%; in test [5] (RP6, herbicide with PBO 2100 g ha^−1 applied 60 min prior), 24%; in test [5] (RP6, herbicide with malathion 1000 g ha^−1 applied 60 min prior), 32%. In addition, the “Annual bluegrass control RP7” value in test [5] (RP7, herbicide alone, foramsulfuron 29, trifloxysulfuron 27.8, imazaquin 27.5, bispyribac-sodium 70 g ha^−1) turned out to be 11%; in test [5] (RP7, herbicide with PBO 2100 g ha^−1 applied 60 min prior), 9%; in test [5] (RP7, herbicide with malathion 1000 g ha^−1 applied 60 min prior) it was 8%. The “Annual bluegrass control S” value in test [5] (herbicide alone, foramsulfuron 29, trifloxysulfuron 27.8, imazaquin 27.5, bispyribac-sodium 70 g ha^−1) turned out to be 53%; in test [5] (herbicide with PBO 2100 g ha^−1 applied 60 min prior), 71%; in test [5] (herbicide with malathion 1000 g ha^−1 applied 60 min prior), 64%.
